# Experiments:
# [1] = system: Male mice (C57BL/6NCrj) loaded with a high-cholesterol feed; assay: Lowering action for cholesterol in blood and lipid in blood, mice loaded with high-cholesterol feed; assay type: in vivo; conditions: relative value, medium group = 100%
# Protocol: Lowering action for cholesterol in blood and lipid in blood:
# Male mice of seven weeks age (C57BL/6NCrj) was loaded with a high-cholesterol feed (CRF-1 Solid Feed in which 5.5% of peanut oil, 1.5% of cholesterol and 0.5% of cholic acid were mixed; Oriental Bio Service) for six days, then body weight of the […] was measured under fasting and the following various parameter concentrations were measured. Measured items were LDL, HDL, TG value, NEFA and TC value. […] From the next day, a compound suspended in a medium (a 0.5% methyl cellulose solution) was compulsorily administered per os once daily for continuous six days and, at the same time, loading with the high cholesterol feed was continued as well. On the next day of the final administration (i.e., on the seventh day from the start of the administration), lipid levels in blood (TG, HDL, LDL, NEFA and TC values) were measured.
# When the data were expressed as relative values where the value for the group to which a medium was administered was defined as 100%, a raising action for HDL and a lowering action for LDL of the compound produced in Example 9 (47) were as shown in Table 2.
# human PPAR δ = target: T1, human PPAR δ (Homo sapiens, UniProt Q03181); assay: Luciferase assay using human PPAR δ (Gal4-PPAR δ ligand binding domain chimera, CV-1 cells); assay type: cell-based; conditions: relative value, carbacyclin at 30 μM defined as 1
# T1 construct: expressed in transfected cells; host or cells: CV-1 cells
# T1 sequence (Q03181 139-441): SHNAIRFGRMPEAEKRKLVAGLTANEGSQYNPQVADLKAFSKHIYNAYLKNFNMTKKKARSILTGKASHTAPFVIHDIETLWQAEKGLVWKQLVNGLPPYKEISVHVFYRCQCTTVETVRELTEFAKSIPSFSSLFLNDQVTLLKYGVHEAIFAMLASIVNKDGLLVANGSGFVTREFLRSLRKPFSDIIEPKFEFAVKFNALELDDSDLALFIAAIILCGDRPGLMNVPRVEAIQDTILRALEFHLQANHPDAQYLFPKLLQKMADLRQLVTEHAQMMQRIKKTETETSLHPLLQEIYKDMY
# [2] = dose 3 mg/kg per os once daily for six days
# [3] = dose 10 mg/kg per os once daily for six days
# [4] = dose 30 mg/kg per os once daily for six days
smiles,measurement,setting,value
"Cc1cc(Oc2ccc(C)cc2OCC#Cc2ccc(C(F)(F)F)cc2)cc(C(=O)O)c1 [Example 9 (47), 3-methyl-5-[4-methyl-2-({3-[4-(trifluoromethyl)phenyl]-2-propynyl}oxy)phenoxy]benzoic acid]",HDL-raising action,[1]; [2],112.0%
same,LDL-lowering action,[1]; [2],89.7%
same,HDL-raising action,[1]; [3],110.2%
same,LDL-lowering action,[1]; [3],85.3%
same,HDL-raising action,[1]; [4],130.7%
same,LDL-lowering action,[1]; [4],84.4%
same,Transcription activation degree,human PPAR δ; final concentration 0.1 μM,0.73 Fold Increase
same,Transcription activation degree,human PPAR δ; final concentration 0.3 μM,1.09 Fold Increase
same,Transcription activation degree,human PPAR δ; final concentration 1.0 μM,1.02 Fold Increase

# Reference: patent publication US20100267778A1, “Diphenyl ether compound, process for producing the same, and use” (priority 2003, published 2010)
